Data on one molecule can be found in patent US7166593B2, “Glucocorticoid receptor modulators” (Pfizer, Inc., priority 2000, dated 2007).

Assay [1] deals with IL-1 (Interleukin-1) induced MMP-1 (Matrix Metalloproteinase-1) production in SW1353 human chondrosarcoma cells. The experiment in a line: glucocorticoid inhibition of IL-1 induced MMP-1 production in human chondrosarcoma cells. The assay is classed as cell-based. The settings on record: 20 ng/ml IL-1 beta, 72 hours after IL-1 addition, MMP-1 ELISA, read-out: IC50, inhibitor of MMP1 expression. The procedure: (§1) This assay, the glucocorticoid inhibition of IL-1 (Interleukin-1) induced MMP-1 (Matrix Metalloproteinase-1) and IL-8 (Interleukin-8) production in human chondrosarcoma cells, is conducted as follows: SW1353 human chondrosarcoma cells (obtained from ATCC) from passage 12 through passage 19 are used in a 96 well format assay. Cells are plated at confluence into 96 well plates in DMEM (Dulbecco's Modified Eagle Medium) with 10% fetal bovine serum and incubated at 37° C., 5% CO2. After 24 hours, serum containing media is removed and replaced with 200 ul/well DMEM containing 1 mg/L insulin, 2 g/L lactalbumin hydrosylate, and 0.5 mg/L ascorbic acid and returned to incubation at 37° C., 5% CO2. […] IL-8 production is assessed using the Quantikine human IL-8 ELISA kit from R&D Systems (D8050) on samples diluted 60. fold in RD5P Calibrator Diluent, following the manufacturer's protocol. The percent of the average IL-1 control is determined for the average of each of the triplicate samples following subtraction of the average signal from untreated cells. IC50's are determined from log linear plots of the percent of control versus the concentration of inhibitor. […] MMP-1 production is assessed via the Bio-Trak MMP-1 ELISA kit from Amersham (RPN2610) on 100 ul of neat sample following the manufacturer's protocol. […]
(An ELISA detects its analyte on a solid surface through an enzyme-linked reagent.)

The test system of assay [2] is IL-1 (Interleukin-1) induced IL-8 (Interleukin-8) production in SW1353 human chondrosarcoma cells. The experiment in a line: glucocorticoid inhibition of IL-1 induced IL-8 production in human chondrosarcoma cells. The assay is classed as cell-based. To be noted: 20 ng/ml IL-1 beta, 24 hours after addition of IL-1, IL-8 ELISA, read-out: IC50, inhibitor of IL-8 expression. The procedure:
as §1

pIC50: −log10 of the molar value.

As usually defined, the pIC50 is the negative decadic logarithm of the IC50, by convention in mol/L. Consider `C[C@@H]1C[C@H]2[C@@H]3CCC4=CC(=O)C=C[C@]4(C)[C@@]3(F)[C@@H](O)C[C@]2(C)[C@@]1(O)C(=O)CO` [Dexamethasone, (11β,16α)-9-fluoro-11,17,21-trihydroxy-16-methylpregna-1,4-diene-3,20-dione], for which the pIC50 in assay [1] and in assay [2] was 8.30 throughout.
